ChEMBL document CHEMBL5649169 (ChemMedChem, 2018)

Key:
[1] = target: Insulin receptor (Homo sapiens) (UniProt P06213); also: assay method not described here
[2] = target: Phenylalanine--tRNA ligase alpha subunit (Homo sapiens) (UniProt Q9Y285); also: assay method not described here
[3] = target: Serine/threonine-protein kinase MRCK gamma (Homo sapiens) (UniProt Q6DT37); also: assay method not described here
[4] = target: L-lactate dehydrogenase A chain (Homo sapiens) (UniProt P00338); also: assay method not described here
[5] = target: 5'-AMP-activated protein kinase subunit beta-1 (Homo sapiens) (UniProt Q9Y478); also: assay method not described here
[6] = target: Double-stranded RNA-specific adenosine deaminase (Homo sapiens) (UniProt P55265); also: assay method not described here
Vinculin (Homo sapiens) = Vinculin (Homo sapiens) (UniProt P18206)
[7] = target: Coiled-coil domain-containing protein 22 (Homo sapiens) (UniProt O60826); also: assay method not described here
[8] = target: Heat shock cognate 71 kDa protein (Homo sapiens) (UniProt P11142); also: assay method not described here
Ephrin type-A receptor 7 = Ephrin type-A receptor 7 (Homo sapiens, UniProt Q15375)
[9] = target: Squalene synthase (Homo sapiens) (UniProt P37268); also: assay method not described here
[10] = target: Rho GDP-dissociation inhibitor 2 (Homo sapiens) (UniProt P52566); also: assay method not described here
[11] = target: Large ribosomal subunit protein uL4 (Homo sapiens) (UniProt P36578); also: assay method not described here
Ephrin type-A receptor 8 = Ephrin type-A receptor 8 (Homo sapiens, UniProt P29322); test: Inhibition of Nano Luc-fused full length C-terminal EPHA8 (unknown origin) expressed in HEK293T cells using NanoGlo as substrate incubated for 2 hrs in presence of tracer by NanoBRET assay; assay type: cell-based
[12] = target: Small ribosomal subunit protein eS6 (Homo sapiens) (UniProt P62753); also: assay method not described here
[13] = target: Ras-related protein Rab-7a (Homo sapiens) (UniProt P51149); also: assay method not described here
[14] = target: ATP synthase F(1) complex subunit delta, mitochondrial (Homo sapiens) (UniProt P30049); also: assay method not described here
[15] = target: Large ribosomal subunit protein uL23 (Homo sapiens) (UniProt P62750); also: assay method not described here
[16] = target: V-type proton ATPase subunit H (Homo sapiens) (UniProt Q9UI12); also: assay method not described here
[17] = target: Hepatocyte growth factor receptor (Homo sapiens) (UniProt P08581); also: assay method not described here
[18] = target: Large ribosomal subunit protein P1 (Homo sapiens) (UniProt P05386); also: assay method not described here
[19] = target: Coatomer subunit epsilon (Homo sapiens) (UniProt O14579); also: assay method not described here
[20] = target: Ribosyldihydronicotinamide dehydrogenase [quinone] (Homo sapiens) (UniProt P16083); also: assay method not described here
[21] = target: RNA-binding protein EWS (Homo sapiens) (UniProt Q01844); also: assay method not described here
[22] = target: ATP synthase peripheral stalk subunit d, mitochondrial (Homo sapiens) (UniProt O75947); also: assay method not described here
[23] = target: Heat shock protein HSP 90-beta (Homo sapiens) (UniProt P08238); also: assay method not described here
[24] = target: AP-3 complex subunit beta-1 (Homo sapiens) (UniProt O00203); also: assay method not described here
[25] = target: Cathepsin D (Homo sapiens) (UniProt P07339); also: assay method not described here
[26] = target: RuvB-like 2 (Homo sapiens) (UniProt Q9Y230); also: assay method not described here
[27] = target: Proliferating cell nuclear antigen (Homo sapiens) (UniProt P12004); also: assay method not described here
[28] = target: Phosphorylase kinase beta subunit (Homo sapiens) (UniProt Q93100); also: assay method not described here
[29] = target: Protein phosphatase 1G (Homo sapiens) (UniProt O15355); also: assay method not described here
[30] = target: Transgelin-2 (Homo sapiens) (UniProt P37802); also: assay method not described here
[31] = target: Large ribosomal subunit protein uL11 (Homo sapiens) (UniProt P30050); also: assay method not described here
[32] = target: PCI domain-containing protein 2 (Homo sapiens) (UniProt Q5JVF3); also: assay method not described here
[33] = target: Aminoacyl tRNA synthase complex-interacting multifunctional protein 2 (Homo sapiens) (UniProt Q13155); also: assay method not described here
[34] = target: Serine/threonine-protein kinase MRCK alpha (Homo sapiens) (UniProt Q5VT25); also: assay method not described here
[35] = target: Nuclear cap-binding protein subunit 1 (Homo sapiens) (UniProt Q09161); also: assay method not described here
[36] = target: Enhancer of rudimentary homolog (Homo sapiens) (UniProt P84090); also: assay method not described here
Ephrin type-B receptor 6 = Ephrin type-B receptor 6 (Homo sapiens, UniProt O15197); test: Inhibition of Nano Luc-fused full length C-terminal EPHB6 (unknown origin) expressed in HEK293T cells using NanoGlo as substrate incubated for 2 hrs in presence of tracer by NanoBRET assay; assay type: cell-based
[37] = target: Eukaryotic translation initiation factor 3 subunit H (Homo sapiens) (UniProt O15372); also: assay method not described here
[38] = target: Exosome RNA helicase MTR4 (Homo sapiens) (UniProt P42285); also: assay method not described here
[39] = target: Heterogeneous nuclear ribonucleoprotein Q (Homo sapiens) (UniProt O60506); also: assay method not described here
[40] = target: Enoyl-CoA delta isomerase 1, mitochondrial (Homo sapiens) (UniProt P42126); also: assay method not described here
[41] = target: Small ribosomal subunit protein uS14 (Homo sapiens) (UniProt P62273); also: assay method not described here
For ED50 in this document: assay method not described here.

Hepatocyte growth factor receptor (Homo sapiens), sequence (P08581 whole entry): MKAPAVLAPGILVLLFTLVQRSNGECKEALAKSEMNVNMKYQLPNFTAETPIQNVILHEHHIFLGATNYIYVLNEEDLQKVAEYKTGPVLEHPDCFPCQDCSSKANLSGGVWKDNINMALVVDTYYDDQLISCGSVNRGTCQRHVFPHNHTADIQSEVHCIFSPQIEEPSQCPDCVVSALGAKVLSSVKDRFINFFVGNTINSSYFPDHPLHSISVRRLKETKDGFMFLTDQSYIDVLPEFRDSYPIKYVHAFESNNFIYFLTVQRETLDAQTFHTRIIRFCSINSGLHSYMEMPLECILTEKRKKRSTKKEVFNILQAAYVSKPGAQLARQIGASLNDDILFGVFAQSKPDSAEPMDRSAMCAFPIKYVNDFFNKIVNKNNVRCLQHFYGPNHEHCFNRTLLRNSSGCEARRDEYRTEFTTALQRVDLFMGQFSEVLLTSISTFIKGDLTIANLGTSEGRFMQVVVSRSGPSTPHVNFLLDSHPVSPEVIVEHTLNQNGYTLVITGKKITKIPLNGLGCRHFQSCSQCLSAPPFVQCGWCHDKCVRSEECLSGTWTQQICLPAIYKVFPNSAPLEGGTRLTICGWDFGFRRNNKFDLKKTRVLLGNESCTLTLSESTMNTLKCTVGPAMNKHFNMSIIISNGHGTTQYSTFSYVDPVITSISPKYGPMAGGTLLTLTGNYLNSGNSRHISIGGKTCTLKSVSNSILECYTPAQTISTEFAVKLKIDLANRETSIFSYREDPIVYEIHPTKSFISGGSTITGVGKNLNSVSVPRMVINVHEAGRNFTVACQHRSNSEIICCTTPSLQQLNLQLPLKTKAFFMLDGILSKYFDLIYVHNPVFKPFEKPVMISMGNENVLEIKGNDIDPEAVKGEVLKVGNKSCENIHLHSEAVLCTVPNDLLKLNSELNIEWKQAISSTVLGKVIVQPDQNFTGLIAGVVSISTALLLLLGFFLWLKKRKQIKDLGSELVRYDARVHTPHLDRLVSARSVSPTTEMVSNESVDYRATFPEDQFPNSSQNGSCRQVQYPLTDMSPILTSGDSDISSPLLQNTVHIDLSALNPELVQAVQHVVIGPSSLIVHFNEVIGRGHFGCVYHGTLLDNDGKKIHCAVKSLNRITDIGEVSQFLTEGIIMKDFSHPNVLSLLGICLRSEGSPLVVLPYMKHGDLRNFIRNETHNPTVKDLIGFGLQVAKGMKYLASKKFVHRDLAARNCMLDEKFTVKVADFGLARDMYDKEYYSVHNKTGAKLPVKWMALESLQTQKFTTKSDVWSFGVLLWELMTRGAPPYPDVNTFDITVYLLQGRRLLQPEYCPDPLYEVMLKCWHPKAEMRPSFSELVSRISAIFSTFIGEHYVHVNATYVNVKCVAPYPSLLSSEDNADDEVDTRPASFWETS
Proliferating cell nuclear antigen (Homo sapiens), sequence (P12004 whole entry): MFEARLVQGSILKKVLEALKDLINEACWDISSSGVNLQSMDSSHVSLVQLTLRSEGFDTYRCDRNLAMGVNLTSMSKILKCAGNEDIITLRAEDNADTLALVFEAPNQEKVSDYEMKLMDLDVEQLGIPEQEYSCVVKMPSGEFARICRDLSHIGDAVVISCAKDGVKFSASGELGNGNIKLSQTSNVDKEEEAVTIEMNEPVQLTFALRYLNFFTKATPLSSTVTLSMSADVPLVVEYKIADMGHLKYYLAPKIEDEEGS
Coatomer subunit epsilon (Homo sapiens), sequence (O14579 whole entry): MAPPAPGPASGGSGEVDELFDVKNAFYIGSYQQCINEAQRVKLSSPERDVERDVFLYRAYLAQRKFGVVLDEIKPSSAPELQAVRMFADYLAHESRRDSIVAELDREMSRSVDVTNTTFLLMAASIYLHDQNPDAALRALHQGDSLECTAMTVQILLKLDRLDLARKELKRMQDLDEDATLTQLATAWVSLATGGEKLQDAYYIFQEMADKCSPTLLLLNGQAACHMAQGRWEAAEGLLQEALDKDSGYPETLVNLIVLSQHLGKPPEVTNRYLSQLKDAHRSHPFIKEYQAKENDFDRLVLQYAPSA
Rho GDP-dissociation inhibitor 2 (Homo sapiens), sequence (P52566 whole entry): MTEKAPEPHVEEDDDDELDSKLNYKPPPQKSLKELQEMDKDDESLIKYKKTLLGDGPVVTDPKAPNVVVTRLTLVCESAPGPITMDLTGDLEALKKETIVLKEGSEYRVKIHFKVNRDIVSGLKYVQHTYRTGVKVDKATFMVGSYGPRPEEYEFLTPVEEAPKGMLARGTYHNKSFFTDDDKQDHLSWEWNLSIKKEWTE
Enoyl-CoA delta isomerase 1, mitochondrial (Homo sapiens), sequence (P42126 whole entry): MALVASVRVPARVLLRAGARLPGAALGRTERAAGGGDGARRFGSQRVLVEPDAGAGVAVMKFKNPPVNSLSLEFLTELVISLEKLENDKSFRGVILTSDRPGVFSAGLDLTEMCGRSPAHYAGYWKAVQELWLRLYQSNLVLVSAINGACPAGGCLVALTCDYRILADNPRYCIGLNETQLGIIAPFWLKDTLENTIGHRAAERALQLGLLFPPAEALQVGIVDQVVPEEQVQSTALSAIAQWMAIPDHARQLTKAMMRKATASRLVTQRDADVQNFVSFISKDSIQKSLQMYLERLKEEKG
Eukaryotic translation initiation factor 3 subunit H (Homo sapiens), sequence (O15372 whole entry): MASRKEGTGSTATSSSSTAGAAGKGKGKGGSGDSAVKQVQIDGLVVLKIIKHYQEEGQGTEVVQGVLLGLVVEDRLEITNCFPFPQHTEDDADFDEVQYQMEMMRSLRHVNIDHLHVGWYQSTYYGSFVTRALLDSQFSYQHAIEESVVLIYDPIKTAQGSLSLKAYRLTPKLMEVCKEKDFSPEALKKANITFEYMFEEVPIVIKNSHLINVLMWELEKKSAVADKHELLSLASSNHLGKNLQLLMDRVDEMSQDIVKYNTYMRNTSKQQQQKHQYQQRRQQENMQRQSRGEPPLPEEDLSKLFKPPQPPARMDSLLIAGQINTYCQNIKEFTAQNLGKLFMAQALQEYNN
Ribosyldihydronicotinamide dehydrogenase [quinone] (Homo sapiens), sequence (P16083 whole entry): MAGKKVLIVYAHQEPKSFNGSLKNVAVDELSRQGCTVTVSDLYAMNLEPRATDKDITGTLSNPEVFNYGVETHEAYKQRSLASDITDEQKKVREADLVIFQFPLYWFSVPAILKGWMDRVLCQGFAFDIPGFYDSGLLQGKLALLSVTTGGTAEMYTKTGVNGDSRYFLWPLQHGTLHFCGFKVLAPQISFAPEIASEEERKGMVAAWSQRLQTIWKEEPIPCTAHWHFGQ
Nuclear cap-binding protein subunit 1 (Homo sapiens), sequence (Q09161 whole entry): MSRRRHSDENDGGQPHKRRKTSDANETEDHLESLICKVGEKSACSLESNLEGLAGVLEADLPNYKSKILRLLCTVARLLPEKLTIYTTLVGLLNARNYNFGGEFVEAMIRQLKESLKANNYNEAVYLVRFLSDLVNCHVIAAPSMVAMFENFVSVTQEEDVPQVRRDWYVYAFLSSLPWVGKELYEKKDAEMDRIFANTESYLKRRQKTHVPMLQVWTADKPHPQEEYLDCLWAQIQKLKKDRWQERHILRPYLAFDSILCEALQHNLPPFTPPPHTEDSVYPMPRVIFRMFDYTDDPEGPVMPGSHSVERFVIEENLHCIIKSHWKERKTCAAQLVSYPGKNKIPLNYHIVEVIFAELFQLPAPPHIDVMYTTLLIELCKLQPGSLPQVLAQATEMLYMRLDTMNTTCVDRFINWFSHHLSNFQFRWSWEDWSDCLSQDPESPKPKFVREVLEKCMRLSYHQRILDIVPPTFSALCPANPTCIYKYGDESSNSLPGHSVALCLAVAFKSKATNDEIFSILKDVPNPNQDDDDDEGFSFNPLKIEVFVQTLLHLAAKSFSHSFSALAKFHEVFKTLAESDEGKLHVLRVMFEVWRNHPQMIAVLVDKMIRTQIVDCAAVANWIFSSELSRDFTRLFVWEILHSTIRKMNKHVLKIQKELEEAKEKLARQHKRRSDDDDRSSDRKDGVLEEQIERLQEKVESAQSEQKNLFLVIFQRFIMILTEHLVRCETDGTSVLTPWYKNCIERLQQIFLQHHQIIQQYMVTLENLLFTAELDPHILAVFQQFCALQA
Ras-related protein Rab-7a (Homo sapiens), sequence (P51149 whole entry): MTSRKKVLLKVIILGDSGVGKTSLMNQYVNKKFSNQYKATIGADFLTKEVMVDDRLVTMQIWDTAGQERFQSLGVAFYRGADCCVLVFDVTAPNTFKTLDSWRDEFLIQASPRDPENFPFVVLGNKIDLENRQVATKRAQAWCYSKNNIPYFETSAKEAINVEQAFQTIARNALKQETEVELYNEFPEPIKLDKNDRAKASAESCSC
Aminoacyl tRNA synthase complex-interacting multifunctional protein 2 (Homo sapiens), sequence (Q13155 whole entry, one chain of several): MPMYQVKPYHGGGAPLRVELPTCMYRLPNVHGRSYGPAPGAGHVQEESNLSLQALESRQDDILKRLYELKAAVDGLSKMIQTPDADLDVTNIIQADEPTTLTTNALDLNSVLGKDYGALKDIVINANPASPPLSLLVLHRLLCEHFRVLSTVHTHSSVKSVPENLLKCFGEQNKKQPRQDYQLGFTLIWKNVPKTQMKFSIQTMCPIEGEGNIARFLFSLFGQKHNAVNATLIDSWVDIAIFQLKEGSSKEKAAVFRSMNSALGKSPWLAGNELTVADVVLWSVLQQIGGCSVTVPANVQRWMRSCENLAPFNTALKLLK
ATP synthase peripheral stalk subunit d, mitochondrial (Homo sapiens), sequence (O75947 whole entry): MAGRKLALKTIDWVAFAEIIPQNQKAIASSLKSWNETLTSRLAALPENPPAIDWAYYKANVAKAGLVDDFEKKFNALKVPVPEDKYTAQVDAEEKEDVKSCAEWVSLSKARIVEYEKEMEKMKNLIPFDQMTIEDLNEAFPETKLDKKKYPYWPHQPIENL
Large ribosomal subunit protein P1 (Homo sapiens), sequence (P05386 whole entry): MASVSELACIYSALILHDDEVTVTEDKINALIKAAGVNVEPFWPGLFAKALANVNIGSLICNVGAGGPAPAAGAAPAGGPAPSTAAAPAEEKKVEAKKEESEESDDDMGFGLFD
5'-AMP-activated protein kinase subunit beta-1 (Homo sapiens), sequence (Q9Y478 whole entry): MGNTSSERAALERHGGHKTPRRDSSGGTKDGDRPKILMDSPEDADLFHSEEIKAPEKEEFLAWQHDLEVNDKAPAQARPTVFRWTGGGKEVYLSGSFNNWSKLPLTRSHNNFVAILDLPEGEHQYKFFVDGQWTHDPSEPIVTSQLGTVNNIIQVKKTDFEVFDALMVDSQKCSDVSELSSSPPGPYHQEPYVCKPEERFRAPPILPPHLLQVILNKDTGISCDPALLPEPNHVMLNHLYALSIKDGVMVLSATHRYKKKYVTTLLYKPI

## Cc1ccc(C(=O)Nc2cccc(C(F)(F)F)c2)cc1Nc1nc(-c2cccnc2)nc2c1cnn2C
[1]
  ED50: 0.163 µM
[2]
  ED50: 0.0419 µM
[3]
  ED50: 17.5 µM
[4]
  ED50: 0.00901 µM
[5]
  ED50: 3.25 µM
[6]
  ED50: 0.00467 µM
Vinculin (Homo sapiens)
  ED50: 0.359 µM
[7]
  ED50: 2.25 µM
[8]
  ED50: 0.121 µM
Ephrin type-A receptor 7
  ED50: 15.8 µM
[9]
  ED50: 3.81 µM
[10]
  ED50: 46.5 µM
[11]
  ED50: 4.73 µM
Ephrin type-A receptor 8
  IC50: 0.0012 µM
[12]
  ED50: 0.0144 µM
[13]
  ED50: 6.59 µM
[14]
  ED50: 146 µM
[15]
  ED50: 0.105 µM
[16]
  ED50: 0.00175 µM
[17]
  ED50: 1.75 µM
[18]
  ED50: 0.0125 µM
[19]
  ED50: 0.787 µM
[20]
  ED50: 0.0365 µM
[21]
  ED50: 54.1 µM
[22]
  ED50: 0.0727 µM
[23]
  ED50: 0.000546 µM
[24]
  ED50: 0.558 µM
[25]
  ED50: 59.3 µM
[26]
  ED50: 5000 µM
[27]
  ED50: 3.51 µM
[28]
  ED50: 12.8 µM
[29]
  ED50: 0.442 µM
[30]
  ED50: 3.15 µM
[31]
  ED50: 3.63 µM
[32]
  ED50: 1.92 µM
[33]
  ED50: 0.00534 µM
[34]
  ED50: 111 µM
[35]
  ED50: 0.000799 µM
[36]
  ED50: 0.00895 µM
Ephrin type-B receptor 6
  IC50: 4.48 µM
[37]
  ED50: 1.4 µM
[38]
  ED50: 0.385 µM
[39]
  ED50: 0.0225 µM
[40]
  ED50: 5.02 µM
[41]
  ED50: 0.108 µM

## Cc1ccc(C(=O)Nc2cccc(C(F)(F)F)c2)cc1Nc1nc(-c2cccnc2)nc2nn(C)cc12
[1]
  ED50: 0.00863 µM
[2]
  ED50: 0.0801 µM
[3]
  ED50: 0.0947 µM
[4]
  ED50: 21.8 µM
[5]
  ED50: 5.82 µM
[6]
  ED50: 0.0077 µM
Vinculin (Homo sapiens)
  ED50: 68.1 µM
[7]
  ED50: 0.598 µM
[8]
  ED50: 1.76 µM
Ephrin type-A receptor 7
  ED50: 1.49 µM
[9]
  ED50: 2.93 µM
[10]
  ED50: 26.6 µM
[11]
  ED50: 24.9 µM
Ephrin type-A receptor 8
  IC50: 0.21 µM
[12]
  ED50: 0.061 µM
[13]
  ED50: 0.44 µM
[14]
  ED50: 97.9 µM
[15]
  ED50: 0.0137 µM
[16]
  ED50: 2.38 µM
[17]
  ED50: 523 µM
[18]
  ED50: 16600 µM
[19]
  ED50: 0.126 µM
[20]
  ED50: 4.12 µM
[21]
  ED50: 11.8 µM
[22]
  ED50: 0.0557 µM
[23]
  ED50: 0.083 µM
[24]
  ED50: 0.049 µM
[25]
  ED50: 760 µM
[26]
  ED50: 0.0478 µM
[27]
  ED50: 0.502 µM
[28]
  ED50: 0.384 µM
[29]
  ED50: 35 µM
[30]
  ED50: 0.102 µM
[31]
  ED50: 0.0513 µM
[32]
  ED50: 1450 µM
[33]
  ED50: 0.0495 µM
[34]
  ED50: 0.0291 µM
[35]
  ED50: 1.78 µM
[36]
  ED50: 0.806 µM
Ephrin type-B receptor 6
  IC50: > 50 µM
[37]
  ED50: 0.179 µM
[38]
  ED50: 4330 µM
[39]
  ED50: 0.296 µM
[40]
  ED50: 64 µM
[41]
  ED50: 0.00933 µM
